{"source": "patent US20120045459A1", "about": "“Methods for Treating Autophagy-Related Disorders” (Van Andel Research Institute, priority 2009, published 2012)", "key": {"U2OS cells [1]": {"system": "U2OS cells", "assay": "LC3B immunofluorescence of autophagic vesicles", "format": "cell-based, human", "conditions": "full growth medium, 25 uM chloroquine, 1 hr", "method": "Immunofluorescence and western blot analyses. U2OS cells were seeded at a density of 35,000 cells per well in McCoy's 5A medium supplemented with 10% FBS on number 1.5 coverglass in 24-well tissue culture plates (for immunofluorescence) or 150,000 cells per well on 6-well dishes (for western blot). After 24 h, siRNAs were transfected at a final concentration of 25 nM using 2 μl HiPerfect transfection reagents (Qiagen) per ml medium. Control siRNA was All-star negative control (Qiagen) and PTPRS siRNAs were two unique sequences (SI02759288, SI03056284, Qiagen). […] For western blots, cells were lysed (in 10 mM KPO4, 1 mM EDTA, 10 mM MgCl2, 5 mM EGTA, 50 mM bisglycerophosphate, 0.5% NP40, 0.1% Brij35, 0.1% sodium deoxycholate, 1 mM NaVO4, 5 mM NaF, 2 mM DTT, AEBSF, aprotinin, bestatin hydrochloride, E64, leupeptin, and pepstatin A and 20 μg of total protein was resolved by SDS-PAGE. Membranes were probed with primary antibodies (LC3B, Cell Signaling Technologies; α-tubulin, Sigma) for 16 h at 4° C. followed by secondary antibodies (HRP-linked anti-rabbit or anti-mouse IgG) for 1 h at room temperature. Proteins were detected by enhanced chemiluminescence. For immunofluorescence, cells were fixed with 3.7% formaldehyde, permeabilized with 0.2% Triton-X 100, and blocked with 3% bovine serum albumin (BSA) in PBS. […]"}, "U2OS cells [2]": {"system": "U2OS cells", "assay": "Transmission electron microscopy of autophagic vesicles", "format": "cell-based, human", "conditions": "compared with control cells in full nutrients", "method": "Transmission electron microscopy (TEM). U2OS cells in 10-cm dishes were transfected with control or PTPRS siRNAs for 48 h. Cells were briefly trypsinized, pelleted, rinsed, and resuspended in 2% glutaraldehyde fixative. Cell pellets were embedded in 2% agarose, postfixed in osmium tetroxide, and dehydrated with an acetone series. […] Ultrathin sections (70 nm) were generated with a Power Tome XL (Boeckeler Instruments) and placed on copper grids. Cells were examined using a JEOL 100CX Transmission Electron Microscope at 100 kV. Autophagic structures were quantified from images encompassing approximately 8.5 μm2 of cell area each."}}}
{"compound": "CCN(CC)CCCC(C)Nc1ccnc2cc(Cl)ccc12", "note": "(centres unmarked) [chloroquine]", "values": [{"measurement": "LC3-positive aggregates (AVs)", "setting": "U2OS cells [1]", "result": "LC3-positive aggregates accumulate"}, {"measurement": "autophagic vesicles (AVs) by TEM", "setting": "U2OS cells [2]", "result": "evident"}]}
